Patent US11760984B2, “CRISPR protein inhibitors” (THE BROAD INSTITUTE, INC., priority 2017, dated 2023)

How the values were obtained:
[1] = tested on: dCas9; assay: dCas9-based transcriptional activation of HBG1 gene in HEK293FT cells (RT-qPCR); type: cell-based; details: for inhibition of HBG1 transcriptional activation: HEK293FT cells, 48 hours
Experimental: Transcription activation experiments and quantitative RT-PCR analyses. For transcription activation experiments 250,000 cells/well were plated in a 12 well plate. The cells were transiently transfected with a 1:1:1 mass ratio of the dCas9 plasmid, MS2-P65-HSF1 effector plasmid and the sgRNA plasmid targeting the HBG1 gene or an RFP control plasmid. A total of 1.6 μg plasmid DNA was transfected using Lipofectamine 2000 (Life Technologies) according to manufacturer's protocol. Immediately after transfection, the cells were treated with an appropriate dose of the small molecule inhibitors for 48 hours following which the cells were harvested and RNA was extracted using the EZNA Total RNA kit I (Omega) as per manufacturer's instructions. 1 μg total cellular RNA was used to perform reverse transcription using the High-Capacity cDNA Reverse Transcription Kit (Applied Biosystems) or the qScript cDNA Synthesis Kit (QuantaBio). qPCR reactions were performed to quantify RNA expression using the TaqMan probes (Life Technologies, HBG1/HBG2: Hs00361131_g1 and ACTB: Hs01060665_g1) and TaqMan Fast Advanced Master Mix (Life Technologies) in 5 μL multiplexed reactions and 384-well format using the LightCycler 480 Instrument II (Roche). For each sample, six technical replicates were performed. Data were analyzed using the LightCycler 480 software (Roche) by the ΔΔCt method: Ct values for the gene of interest (HBG1) were normalized to Ct values for the housekeeping gene (ACTB) and fold-changes in the expression level of the gene of interest were normalized to RFP-transfected control. The data are reported as mean±S.E.M. for technical replicates.
For transcription activation experiments 250,000 cells/well were plated in a 12 well plate. […] Data were analyzed using the LightCycler 480 software (Roche) by the ΔΔCt method: Ct values for the gene of interest (HBG1) were normalized to Ct values for the housekeeping gene (ACTB) and fold-changes in the expression level of the gene of interest were normalized to RFP-transfected control. […]

[2] = tested on: HEK293T cells; assay: Cell viability assay (ATP content), HEK293T cells; type: cell-based; details: up to 20 μM, 24 h
Experimental: FIG. 23—Cell viability assay (ATP content) of […] cells in the presence of compounds. Measurement of ATP content of HEK293T cells upon incubating with BRD7087 and BRD5779 (5-20 μM) for 24 h. Error bars represent ±S.D. from technical replicates (n=3).
FIG. 67. Cell viability assay (ATP content) of HEK293T cells in the presence of compounds. Measurement of ATP content of HEK293T cells upon incubating with BRD7087 and BRD5779 (5-20 μM) for 24 h. Error bars represent ±S.D. from technical replicates (n=3).

[3] = tested on: U2OS.eGFP.PEST cells; assay: Cell viability assay (ATP content), U2OS.eGFP.PEST cells; type: cell-based, human; details: up to 20 μM, 24 h
Experimental: FIG. 22—Cell viability assay (ATP content) of U2OS.eGFP.PEST cells in the presence of compounds. Measurement ATP content of U2OS.eGFP.PEST cells upon incubating with BRD7087 and BRD5779 (5-20 μM) for 24 h. Error bars represent ±S.D. from technical replicates (n=3).
FIG. 66. Cell viability assay (ATP content) of U2OS.eGFP.PEST cells in the presence of compounds. Measurement of ATP content of U2OS.eGFP.PEST cells upon incubating with BRD7087 and BRD5779 (5-20 μM) for 24 h. Error bars represent ±S.D. from technical replicates (n=3).

For `COc1ccc(-c2ccc3c(c2)[C@H]2[C@H](CCN2Cc2ccncc2)[C@@H](CO)N3)cc1` [BRD5779, ((3aR,4S,9bR)-8-(4-Methoxyphenyl)-1-(pyridin-4-ylmethyl)-2,3,3a,4,5,9b-hexahydro-1H-pyrrolo[3,2-c]quinolin-4-yl)methanol], the “inhibition of HBG1 transcriptional activation” value [1] was “dose-dependent inhibition”, the “cytotoxicity: cellular ATP-levels” value [2] was “did not significantly alter the cellular ATP-levels” and the “cytotoxicity: cellular ATP-levels” value [3] was “did not significantly alter the cellular ATP-levels”.

With `OC[C@H]1Nc2ccc(-c3cccc(F)c3)cc2[C@H]2[C@@H]1CCN2Cc1ccncc1` [BRD7087, ((3aR,4S,9bR)-8-(3-Fluorophenyl)-1-(pyridin-4-ylmethyl)-2,3,3a,4,5,9b-hexahydro-1H-pyrrolo[3,2-c]quinolin-4-yl)methanol] the “inhibition of transcriptional activation” value ([1]; 10 μM, HBG1 gene) was over 60%, the “inhibition of HBG1 transcriptional activation” value [1] was “dose-dependent inhibition” and the “cytotoxicity: cellular ATP-levels” value [2] was “did not significantly alter the cellular ATP-levels”. The “cytotoxicity: cellular ATP-levels” value [3] was “did not significantly alter the cellular ATP-levels”.
